Organism: Mus musculus
Test: Antinociceptive activity in mice was determined using PBQ assay.
Format: functional

| SMILES | ED50 [µmol/kg] |
| --- | --- |
| CS[C@@H]1Cc2ccc(O)cc2C(C)(C)[C@@H]1N | 0.14 |
| CO[C@@H]1Cc2ccc(O)cc2C(C)(C)[C@@H]1N | 1.1 |
| C[C@@]12CCCCS[C@@H](Cc3ccc(O)cc31)C2N (stereo partly specified) | 0.33 |
| CC[C@@H]1Cc2ccc(O)cc2C(C)(C)[C@@H]1N | 4.8 |
| CN1CC[C@]23c4c5ccc(O)c4O[C@H]2[C@@H](O)C=C[C@H]3[C@H]1C5 [MORPHINE] | 1.6 |

Organism: Mus musculus
Test: Antinociceptive activity in mice was determined using Tail flick method.
Format: functional

| SMILES | ED50 [µmol/kg] |
| --- | --- |
| CS[C@@H]1Cc2ccc(O)cc2C(C)(C)[C@@H]1N | 0.58 |
| CO[C@@H]1Cc2ccc(O)cc2C(C)(C)[C@@H]1N | 16 |
| CC[C@@H]1Cc2ccc(O)cc2C(C)(C)[C@@H]1N | 10.4 |
| CN1CC[C@]23c4c5ccc(O)c4O[C@H]2[C@@H](O)C=C[C@H]3[C@H]1C5 [MORPHINE] | 1.2 |

These molecules were tested against Kappa-type opioid receptor (Homo sapiens, UniProt P41145) (assay: Binding affinity for Opioid receptor kappa 1 was determined.).
Sequence of Kappa-type opioid receptor (P41145 whole entry): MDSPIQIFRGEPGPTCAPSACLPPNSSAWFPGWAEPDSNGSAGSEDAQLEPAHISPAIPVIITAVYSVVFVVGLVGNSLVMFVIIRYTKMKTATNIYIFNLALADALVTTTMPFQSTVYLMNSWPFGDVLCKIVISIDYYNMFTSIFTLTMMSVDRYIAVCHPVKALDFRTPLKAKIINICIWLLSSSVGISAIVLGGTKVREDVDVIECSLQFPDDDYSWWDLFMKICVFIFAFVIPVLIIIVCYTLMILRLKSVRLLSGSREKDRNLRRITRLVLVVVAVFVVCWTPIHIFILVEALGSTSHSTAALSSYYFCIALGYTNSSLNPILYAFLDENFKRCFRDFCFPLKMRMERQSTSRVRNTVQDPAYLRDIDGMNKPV

| SMILES | Ki [nM] |
| --- | --- |
| CS[C@@H]1Cc2ccc(O)cc2C(C)(C)[C@@H]1N | 66 |
| CO[C@@H]1Cc2ccc(O)cc2C(C)(C)[C@@H]1N | 184 |
| C[C@@]12CCCCS[C@@H](Cc3ccc(O)cc31)C2N (stereo partly specified) | 43.4 |
| CC[C@@H]1Cc2ccc(O)cc2C(C)(C)[C@@H]1N | 345 |

What follows are molecules tested against Delta-type opioid receptor (Homo sapiens, UniProt P41143) (assay: Binding affinity for Opioid receptor delta 1 was determined).
Sequence of Delta-type opioid receptor (P41143 whole entry): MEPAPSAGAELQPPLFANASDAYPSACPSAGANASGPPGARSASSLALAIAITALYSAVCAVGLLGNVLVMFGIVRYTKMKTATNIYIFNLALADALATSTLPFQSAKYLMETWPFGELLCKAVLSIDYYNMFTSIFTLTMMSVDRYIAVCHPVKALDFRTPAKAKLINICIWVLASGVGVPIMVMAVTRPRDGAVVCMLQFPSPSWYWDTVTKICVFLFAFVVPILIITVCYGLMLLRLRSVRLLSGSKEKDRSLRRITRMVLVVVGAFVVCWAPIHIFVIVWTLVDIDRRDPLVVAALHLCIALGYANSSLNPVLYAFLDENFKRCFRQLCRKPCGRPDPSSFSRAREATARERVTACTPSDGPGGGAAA

| SMILES | Ki [nM] |
| --- | --- |
| CS[C@@H]1Cc2ccc(O)cc2C(C)(C)[C@@H]1N | 349 |
| CO[C@@H]1Cc2ccc(O)cc2C(C)(C)[C@@H]1N | 5220 |
| C[C@@]12CCCCS[C@@H](Cc3ccc(O)cc31)C2N (stereo partly specified) | 420 |
| CC[C@@H]1Cc2ccc(O)cc2C(C)(C)[C@@H]1N | 4510 |

The molecules below were run against Mu-type opioid receptor (Homo sapiens, UniProt P35372) (assay: Binding affinity for Opioid receptor mu 1).
Sequence of Mu-type opioid receptor (P35372 whole entry): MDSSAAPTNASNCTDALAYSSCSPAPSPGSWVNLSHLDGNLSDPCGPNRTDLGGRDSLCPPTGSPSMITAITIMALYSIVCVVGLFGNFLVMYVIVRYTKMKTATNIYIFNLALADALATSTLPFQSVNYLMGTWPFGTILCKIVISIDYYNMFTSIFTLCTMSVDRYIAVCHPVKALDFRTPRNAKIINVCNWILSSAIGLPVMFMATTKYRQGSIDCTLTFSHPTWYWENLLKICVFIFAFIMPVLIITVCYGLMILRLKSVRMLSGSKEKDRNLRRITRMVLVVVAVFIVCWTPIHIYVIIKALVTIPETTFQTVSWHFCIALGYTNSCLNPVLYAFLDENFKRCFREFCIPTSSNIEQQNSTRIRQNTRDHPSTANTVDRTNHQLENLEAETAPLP

| SMILES | Ki [nM] |
| --- | --- |
| CC1(C)c2cc(O)ccc2C[C@@H](S)[C@H]1N | 163 |
| CO[C@@H]1Cc2ccc(O)cc2C(C)(C)[C@@H]1N | 1.8 |
| CC1(C)c2cc(O)ccc2C[C@@H](O)[C@H]1N | 204 |
| CC1(C)c2cc(O)ccc2C[C@@H](S(C)(=O)=O)[C@H]1N | 1150 |
| CC[C@H]1Cc2ccc(O)cc2C(C)(C)[C@@H]1N | 135 |
| C[C@@]12CCCCS[C@@H](Cc3ccc(O)cc31)C2N (stereo partly specified) | 0.79 |
| CC[C@@H]1Cc2ccc(O)cc2C(C)(C)[C@@H]1N | 21 |
| C[S+]([O-])[C@@H]1Cc2ccc(O)cc2C(C)(C)[C@@H]1N (stereo in doubt; 18A) | 1060 |
| C[S+]([O-])[C@@H]1Cc2ccc(O)cc2C(C)(C)[C@@H]1N (stereo in doubt; 18B) | 2000 |

Reference: ChEMBL document CHEMBL1134942, “Synthesis and structure--activity relationship of novel aminotetralin derivatives with high micro selective opioid affinity” (Bioorg Med Chem Lett, 2002)
